According to publication PMC9952391, “The Role of Acetyl Zingerone and Its Derivatives in Inhibiting UV-Induced, Incident, and Delayed Cyclobutane Pyrimidine Dimers” (Antioxidants, 2023):

Key:
[1] = test system: incident CPDs (iCPDs) in NBHF cells; assay: iCPD assessment by DNA ELISA after ssUV, NBHF; assay type: cell-based, human; conditions: 50 µg/mL, 24 h preincubation, 18 kJ/m^2 ssUV, Figure 3B
Excerpt: (§1) For UV exposures, we used a “SOL-UV6 ultraviolet solar simulator” from Newport irradiators. It is equipped with a Xenon arc lamp where the output is varied using the integrated variable attenuator aperture, which provides the ability to vary the output from 10% to 100% of the maximum available solar constants. The output spectrum is flat from 320 nm to 400 nm and no values are below 300 nm. This is abbreviated as “ssUV” for “solar-simulated UV” throughout the text. Various cell types seeded at ~50% confluency, were treated with the AZ and analogs at concentrations mentioned in the data figures for 24–h. Cells at ~80–90% confluency (untreated controls), were washed twice with PBS and exposed to 18 kJ/m^2 of ssUV in minimal amount of PBS (ex. 2 mL PBS in a 60 mm cell culture dish) without any dish lid in place. […] The ssUV apparatus was monitored almost daily using UV meters for any emissions below 300 nm. The dose was decided based upon the 80–90% cell survival post UV exposure. After exposure, one time point was collected immediately to assess iCPDs, whereas more dishes were incubated in cell culture medium, inside the cell culture incubator, for various time points to be collected post UV to assess dCPDs. For dCPD induction, it is important that the cell culture incubator is not opened for at least 30 min (the first time point post UV) to avoid possible interference from the CO2/O2 ratio, which will be altered upon opening the incubator doors. Cells were collected by scraping and washed once with PBS, which was followed by DNA isolation using a Quick DNA miniprep Kit (Cat. D3024, Zymo Research, Irvine, CA, USA). CPDs were assessed using our previously established DNA ELISA protocols. In brief, ELISA was performed using mouse monoclonal Anti-CPD (Cat. CAC-NM-DND-001, Clone TDM-2, CosmoBio, Inc., Carlsbad, CA, USA). Flat-bottom, 96-well plates (Cat. 2801, Thermo Scientific, Waltham, MA, USA) were coated overnight with 50 µL of protamine sulphate (0.005–0.05%, Cat. P3369, Sigma, St. Lois, MO, USA) in distilled water. After washing twice with water, heat-denatured DNA was plated in triplicates from each sample, into the protamine sulphate coated plate wells (50–100 ng/well in 50 µL PBS) and incubated overnight at 37 °C. The plates were washed 5 times with 200 µL of PBST (PBS containing 0.05% Tween-20 Cat. P7949, Sigma), and blocked with 2–4% FBS in PBST (blocking buffer) for 1 h at room temperature (RT). The plates were incubated with 100 µL of a 1:1000 dilution of anti-CPD antibody in blocking buffer, and incubated for 30 min at 37 °C, which was followed by 5 washes in PBST. Next, the plates were incubated with 100 µL of a 1:2000 dilution of Biotin-F(ab’)2 fragment of anti-mouse IgG(H+L) (Cat. B-2763, Life Technologies) in blocking buffer for 30 min at 37 °C. Detection was conducted using 100 µL of a 1:10,000 dilution of Streptavidin HRP (Cat. 434323, Life Technologies) in 2% FBS for 30 min at 37 °C, which was followed by 5 washes. The plates were washed once with citrate phosphate buffer (24.3 mM citric acid monohydrate, J.T. Baker Cat. 0110-01- and 51.4-mM sodium phosphate dibasic, Sigma Cat. S7907, pH 5.0). The o-phenylene diamine dihydrochloride (Cat. P8287-50TAB, Sigma) was used as a HRP substrate at 400 µg/mL in citrate phosphate buffer for 5–10 min. A measure of 50 µL of 2M H2SO4 was used to stop the reaction as soon as the color developed (5–10 min incubation in substrate), and OD was measured at 490 nm using a Synergy-2 multimode microplate reader (BioTek, Winooski, VT, USA).

[2] = test system: incident CPDs (iCPDs) in pigmented C57BL/6 melanocytes (Mel-a); assay: iCPD assessment by DNA ELISA after ssUV, Mel-a; assay type: cell-based, mouse; conditions: various doses up to 1 mg/mL, 24 h, Figure 4A
Excerpt: as §1

[3] = test system: incident CPDs (iCPDs) in HaCaT cells; assay: iCPD assessment by DNA ELISA after ssUV, HaCaT; assay type: cell-based, human; conditions: various doses, Supplementary Figure S2A
Excerpt: (§2) For UV exposures, we used a “SOL-UV6 ultraviolet solar simulator” from Newport irradiators. It is equipped with a Xenon arc lamp where the output is varied using the integrated variable attenuator aperture, which provides the ability to vary the output from 10% to 100% of the maximum available solar constants. The output spectrum is flat from 320 nm to 400 nm and no values are below 300 nm. This is abbreviated as “ssUV” for “solar-simulated UV” throughout the text. Various cell types seeded at ~50% confluency, were treated with the AZ and analogs at concentrations mentioned in the data figures for 24–h. Cells at ~80–90% confluency (untreated controls), were washed twice with PBS and exposed to 18 kJ/m^2 of ssUV in minimal amount of PBS (ex. 2 mL PBS in a 60 mm cell culture dish) without any dish lid in place. […] The ssUV apparatus was monitored almost daily using UV meters for any emissions below 300 nm. The dose was decided based upon the 80–90% cell survival post UV exposure. After exposure, one time point was collected immediately to assess iCPDs, whereas more dishes were incubated in cell culture medium, inside the cell culture incubator, for various time points to be collected post UV to assess dCPDs. For dCPD induction, it is important that the cell culture incubator is not opened for at least 30 min (the first time point post UV) to avoid possible interference from the CO2/O2 ratio, which will be altered upon opening the incubator doors. Cells were collected by scraping and washed once with PBS, which was followed by DNA isolation using a Quick DNA miniprep Kit (Cat. D3024, Zymo Research, Irvine, CA, USA). CPDs were assessed using our previously established DNA ELISA protocols. In brief, ELISA was performed using mouse monoclonal Anti-CPD (Cat. CAC-NM-DND-001, Clone TDM-2, CosmoBio, Inc., Carlsbad, CA, USA). […] A measure of 50 µL of 2M H2SO4 was used to stop the reaction as soon as the color developed (5–10 min incubation in substrate), and OD was measured at 490 nm using a Synergy-2 multimode microplate reader (BioTek, Winooski, VT, USA).

[4] = test system: incident CPDs (iCPDs) in albino C57BL/6 melanocytes (Mel-c); assay: iCPD assessment by DNA ELISA after ssUV, Mel-c; assay type: cell-based, mouse; conditions: various doses up to 1 mg/mL, 24 h, Figure 4B
Excerpt: as §2

Row | SMILES | Inhibition of iCPD formation [1] | iCPD inhibition across doses [2] | iCPD inhibition across doses ([2]; listed as RMKE) | iCPD inhibition [3] | iCPD inhibition across doses [4]
1 | COc1ccc(CC(C(C)=O)C(C)=O)cc1OC [DMBPD, 3-(3,4-Dimethoxy-benzyl)-pentane-2,4-dione] | inhibited iCPD formation to varying extents | – | – | – | –
2 | COc1ccc(CCC(C)=O)cc1 [RKME, 4-(4-Methoxyphenyl)-butan-2-one, reference compound] | – | did not show any impact | completely abrogated the ability of the molecule to prevent CPD formation | did not show any effect | did not show any impact
3 | COc1cc(CC(C(C)=O)C(C)=O)cc(OC)c1OC [TMBPD, 3-(3,4,5-trimethoxy-benzyl)-pentane-2,4-dione] | inhibited iCPD formation to varying extents | – | – | – | –
